Measurements: ChEMBL document CHEMBL1201862, “PubChem BioAssay data set” (2004)
Activity calls are given as the source filed them.

Tests used:
[1] = target: Sphingosine 1-phosphate receptor 2 (Homo sapiens, UniProt O95136); assay: Dose Response Cell Based Assay for Agonists of the S1P2 Receptor of Purchased Analogues. [Related pubchem assays: 729, 843, 854, 736 ]; format: functional
NADPH oxidase 1 = NADPH oxidase 1 (Homo sapiens, UniProt Q9Y5S8); format: functional, cell-based;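 also: Cell-based assay with luminescence read-out, IC50 derived from inhibitor dose-response curves; intracellular ROS from endogenous NOX1 in intact HT29 colon cancer cells; potency of inhibitors that lower the ROS luminescence signal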
[2] = target: T1, E3 ubiquitin-protein ligase XIAP (Homo sapiens, UniProt P98170); assay: Counter Screen using XIAP-Bir3 for Chemical Antagonists of Bir1/2 domains of IAP-family anti-apoptotic proteins. [Related pubchem assays (depositor defined):AID1018, AID1449, AID1514, AID1638, AID1749, AID1750, AID488957, AID488963]
[3] = target: T1, E3 ubiquitin-protein ligase XIAP; assay: XIAP antagonists, biochemical, IAP family, fluorescence polarization (AID 1018); format: functional
[4] = target: T2, Replicative DNA helicase DnaB (Mycobacterium tuberculosis, UniProt P9WMR3); assay: DnaB intein splicing inhibitors, dose response, biochemical, cell-free fluorescence (AID 449749); format: functional
T2 sequence (P9WMR3 whole entry): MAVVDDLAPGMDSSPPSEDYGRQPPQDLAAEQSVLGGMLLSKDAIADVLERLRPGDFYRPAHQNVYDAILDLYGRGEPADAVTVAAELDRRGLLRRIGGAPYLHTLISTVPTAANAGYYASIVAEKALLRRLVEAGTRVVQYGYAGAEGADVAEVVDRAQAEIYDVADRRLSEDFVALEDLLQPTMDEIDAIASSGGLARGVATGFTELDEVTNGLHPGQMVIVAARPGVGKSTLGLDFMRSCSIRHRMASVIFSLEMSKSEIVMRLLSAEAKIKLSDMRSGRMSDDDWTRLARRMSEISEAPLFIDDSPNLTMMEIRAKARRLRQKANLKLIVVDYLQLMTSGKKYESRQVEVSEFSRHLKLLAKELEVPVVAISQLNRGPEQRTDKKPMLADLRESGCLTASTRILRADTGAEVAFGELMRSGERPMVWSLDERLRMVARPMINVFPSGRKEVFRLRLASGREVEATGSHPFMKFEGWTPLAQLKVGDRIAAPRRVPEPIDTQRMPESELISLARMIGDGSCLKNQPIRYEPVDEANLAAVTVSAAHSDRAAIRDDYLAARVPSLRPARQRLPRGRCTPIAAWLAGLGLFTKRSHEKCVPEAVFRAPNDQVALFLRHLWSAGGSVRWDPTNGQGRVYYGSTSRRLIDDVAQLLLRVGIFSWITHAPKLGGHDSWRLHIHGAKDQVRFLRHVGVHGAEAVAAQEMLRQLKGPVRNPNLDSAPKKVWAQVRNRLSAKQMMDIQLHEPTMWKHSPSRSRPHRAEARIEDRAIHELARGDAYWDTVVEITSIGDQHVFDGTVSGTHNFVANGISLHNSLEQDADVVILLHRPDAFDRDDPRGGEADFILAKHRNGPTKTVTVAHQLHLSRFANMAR

Aspartyl aminopeptidase = target: T3, Aspartyl aminopeptidase (Plasmodium falciparum 3D7, UniProt Q8I2J3); assay: Counterscreen for inhibitors of M1 and M17 aminopeptidases: QFRET-based biochemical high throughput dose response assay for inhibitors of the Plasmodium falciparum M18 Aspartyl Aminopeptidase (PFM18AAP). [Related PubChem assays: 1619 (Screening assay (M17LAP inhibitors).), 1445 (Screening assay (M1AAP inhibitors).)]
T3 sequence (Q8I2J3 whole entry): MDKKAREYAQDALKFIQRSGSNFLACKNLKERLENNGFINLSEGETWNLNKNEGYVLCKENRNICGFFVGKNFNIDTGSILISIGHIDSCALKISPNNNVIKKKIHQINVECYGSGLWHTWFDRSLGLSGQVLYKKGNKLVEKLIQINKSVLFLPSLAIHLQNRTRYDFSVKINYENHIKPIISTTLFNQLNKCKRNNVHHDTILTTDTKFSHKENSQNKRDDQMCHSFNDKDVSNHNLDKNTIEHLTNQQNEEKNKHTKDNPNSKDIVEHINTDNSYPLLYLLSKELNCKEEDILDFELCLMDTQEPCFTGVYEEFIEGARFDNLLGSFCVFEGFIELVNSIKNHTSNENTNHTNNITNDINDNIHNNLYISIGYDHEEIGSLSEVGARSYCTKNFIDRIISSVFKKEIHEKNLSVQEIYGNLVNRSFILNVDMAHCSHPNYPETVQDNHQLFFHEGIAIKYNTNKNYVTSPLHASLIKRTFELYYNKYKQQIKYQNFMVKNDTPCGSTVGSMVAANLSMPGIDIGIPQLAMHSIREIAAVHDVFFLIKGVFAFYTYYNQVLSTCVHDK

Procathepsin L = Procathepsin L (Homo sapiens, UniProt P07711); assay: cathepsin L inhibitors, dose response, counter-screen for M1/M17 aminopeptidase inhibitor project, biochemical, QFRET, 1536-well (AID 2214)
Leucine aminopeptidase = target: T4, Leucine aminopeptidase (Plasmodium falciparum 3D7, UniProt Q8IL11); assay: P. falciparum M17LAP inhibitors, primary screen, biochemical, fluorogenic H-Leu-NHMec substrate, 1536-well (AID 1619); format: functional
T4 sequence (Q8IL11 whole entry): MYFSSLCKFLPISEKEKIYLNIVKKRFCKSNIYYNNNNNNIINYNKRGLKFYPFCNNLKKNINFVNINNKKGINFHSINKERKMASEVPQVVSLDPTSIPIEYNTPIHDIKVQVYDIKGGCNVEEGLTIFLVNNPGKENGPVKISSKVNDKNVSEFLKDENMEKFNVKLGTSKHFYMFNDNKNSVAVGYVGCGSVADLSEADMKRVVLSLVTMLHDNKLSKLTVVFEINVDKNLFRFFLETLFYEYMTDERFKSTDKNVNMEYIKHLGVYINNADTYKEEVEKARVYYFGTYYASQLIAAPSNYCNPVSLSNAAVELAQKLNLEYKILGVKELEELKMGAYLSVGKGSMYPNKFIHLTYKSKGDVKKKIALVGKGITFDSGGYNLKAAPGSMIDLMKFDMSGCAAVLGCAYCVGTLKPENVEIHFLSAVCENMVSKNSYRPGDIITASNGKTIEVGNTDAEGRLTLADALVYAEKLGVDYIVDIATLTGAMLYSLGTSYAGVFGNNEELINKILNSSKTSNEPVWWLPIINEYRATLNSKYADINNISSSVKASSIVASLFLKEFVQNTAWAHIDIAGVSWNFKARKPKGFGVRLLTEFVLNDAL

Protein RecA = target: T5, Protein RecA (Mycobacterium tuberculosis, UniProt P9WHJ3); assay: Fluorescence Cell-Free Homogeneous Dose Retest to Identify Inhibitors of RecA-Intein Splicing Activity. [Related pubchem assays (depositor defined):AID2097, AID2223, AID489010, AID492950]; format: functional
T5 sequence (P9WHJ3 whole entry): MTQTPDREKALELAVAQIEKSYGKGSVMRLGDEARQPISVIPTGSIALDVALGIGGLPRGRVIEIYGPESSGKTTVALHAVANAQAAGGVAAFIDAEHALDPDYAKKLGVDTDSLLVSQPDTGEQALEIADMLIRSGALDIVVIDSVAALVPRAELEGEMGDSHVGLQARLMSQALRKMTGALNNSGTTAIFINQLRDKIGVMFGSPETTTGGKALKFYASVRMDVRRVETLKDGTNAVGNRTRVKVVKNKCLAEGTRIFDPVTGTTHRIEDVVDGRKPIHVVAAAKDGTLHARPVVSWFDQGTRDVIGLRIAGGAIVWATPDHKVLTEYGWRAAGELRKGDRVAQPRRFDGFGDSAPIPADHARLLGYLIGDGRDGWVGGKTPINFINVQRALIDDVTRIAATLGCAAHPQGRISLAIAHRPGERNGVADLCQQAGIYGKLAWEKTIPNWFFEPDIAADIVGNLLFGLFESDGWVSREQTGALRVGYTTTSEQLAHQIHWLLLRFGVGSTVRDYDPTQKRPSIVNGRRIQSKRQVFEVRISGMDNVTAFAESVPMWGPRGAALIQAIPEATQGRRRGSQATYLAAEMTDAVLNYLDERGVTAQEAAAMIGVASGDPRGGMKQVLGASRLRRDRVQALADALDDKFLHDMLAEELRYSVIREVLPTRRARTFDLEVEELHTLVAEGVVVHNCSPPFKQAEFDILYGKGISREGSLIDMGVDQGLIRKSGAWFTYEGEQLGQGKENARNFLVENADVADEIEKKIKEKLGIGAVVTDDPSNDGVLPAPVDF

[5] = non-specific cell cytotoxicity, dose response, cytotoxicity control for PAX8 inhibitor project, plate reader, dry powder samples (AID 743021); format: functional, cell-based
Jurkat = assay: antigen receptor-induced NF-kB inhibitors, dose response, Jurkat, luciferase reporter, luminescence, B- and T-cell (AID 489004); format: functional, cell-based; conditions: Homo sapiens;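 also: NF-kB luciferase reporter Jurkat cells stimulated with PMA plus ionomycin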
[6] = target: T6, Heat shock factor protein 1 (Mus musculus, UniProt P38532); assay: inhibition of MG132-induced HSE-luciferase signal, confirmation, cell-based, NIH3T3, luminescence, dose retest (AID 2382); format: functional;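 also: NIH3T3 fibroblasts with HSF1-driven luciferase reporter stressed by proteasome inhibitor MG132; luminescence from HSF1-driven luciferase expression after 8 hours of MG132 stress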
T6 sequence (P38532 whole entry): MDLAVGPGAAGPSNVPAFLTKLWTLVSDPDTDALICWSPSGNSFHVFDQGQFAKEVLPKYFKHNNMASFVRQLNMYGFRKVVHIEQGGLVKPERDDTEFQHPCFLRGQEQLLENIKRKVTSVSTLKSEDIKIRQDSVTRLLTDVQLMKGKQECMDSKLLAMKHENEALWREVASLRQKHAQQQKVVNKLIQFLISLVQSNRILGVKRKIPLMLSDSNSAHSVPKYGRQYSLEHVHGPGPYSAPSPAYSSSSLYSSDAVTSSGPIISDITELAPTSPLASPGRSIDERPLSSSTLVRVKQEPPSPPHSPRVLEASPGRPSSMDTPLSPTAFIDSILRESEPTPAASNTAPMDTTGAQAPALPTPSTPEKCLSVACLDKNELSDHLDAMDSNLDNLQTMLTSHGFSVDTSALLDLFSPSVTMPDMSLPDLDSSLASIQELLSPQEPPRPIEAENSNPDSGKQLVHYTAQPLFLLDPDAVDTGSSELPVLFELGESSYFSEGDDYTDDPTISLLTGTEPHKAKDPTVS

[7] = cytotoxicity toward NIH3T3 fibroblasts, dose response, counter-screen, cell-based, ATP luminescence, mouse fibroblasts (AID 2010); format: functional;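 also: cells exposed to compound for about 90 hours before reading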
[8] = cytotoxicity in HEK-293T NF-kB-Luc cells, dose response, cytotoxicity control for B/T-cell NF-kB inhibitor project, cell-based, uHTS hits (AID 489019); format: functional;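 also: IC50 reflects cytotoxicity as loss of cell viability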
[9] = inhibitors of intracellular T. cruzi replication, confirmation, NIH3T3 host cells, beta-gal luminescence (AID 2044); format: functional, cell-based;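 also: intracellular parasites grown in NIH/3T3 mouse fibroblasts as host cells; luminescent beta-galactosidase reporter signal from transgenic T. cruzi replicating inside host cells; inhibitors lower the luminescence signal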
[10] = Luminescent dose response cell-based high throughput screening assay for inhibitors of the Janus kinase 2 mutant JAK2V617F. [Related pubchem assays: 1446 (Primary screen.), 1521 (Confirmation assay.), 1486 (Counter screen.)]; format: functional
Paired box protein Pax-8 = Paired box protein Pax-8 (Homo sapiens, UniProt Q06710); assay: inhibitors of PAX8-driven TPO luciferase reporter, dose response, RMG-I cells, cherry-pick (AID 687027); format: functional, cell-based;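 also: luciferase reporter driven by Pax8 target thyroperoxidase promoter measured by SteadyGlo luminescence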
H4 = assay: Luminescence Cell-Based Dose Response HTS to Identify Activators of 5'UTR Stem-Loop Driven Prion Protein mRNA Translation in H4 Neuroglioblastoma Cells. [Related pubchem assays: 1829 (Project Summary), 1814 (Primary HTS)]; format: functional; conditions: Homo sapiens
[11] = Luminescence Cell-Based Dose Response to Identify Activators of 5'UTR Stem-Loop Driven Prion Protein mRNA Translation in H4-C Neuroglioblastoma Cells. [Related pubchem assays: 1829 (Project Summary), 1814 (Primary HTS)]; format: functional
[12] = Luminescence Cell-Based Dose Response to Identify Activators of Luciferase Translation or Activity in H4-C Neuroglioblastoma Cells. [Related pubchem assays: 1829 (Project Summary), 1814 (Primary HTS)]; format: functional
[13] = Luminescence Cell-Based Dose Response HTS to Identify Activators of Luciferase Translation or Activity in H4 […] Cells. [Related pubchem assays: 1829 (Project Summary), 1814 (Primary HTS)]; format: functional
[14] = Luminescence Cell-Based Dose Confirmation to Identify Activators of 5'UTR Stem-Loop Driven Alpha-Synuclein mRNA Translation in H4 Neuroglioblastoma Cells. [Related pubchem assays: 1829 (Project Summary), 1814 (Primary HTS)]; format: functional

T1 sequence (P98170 whole entry): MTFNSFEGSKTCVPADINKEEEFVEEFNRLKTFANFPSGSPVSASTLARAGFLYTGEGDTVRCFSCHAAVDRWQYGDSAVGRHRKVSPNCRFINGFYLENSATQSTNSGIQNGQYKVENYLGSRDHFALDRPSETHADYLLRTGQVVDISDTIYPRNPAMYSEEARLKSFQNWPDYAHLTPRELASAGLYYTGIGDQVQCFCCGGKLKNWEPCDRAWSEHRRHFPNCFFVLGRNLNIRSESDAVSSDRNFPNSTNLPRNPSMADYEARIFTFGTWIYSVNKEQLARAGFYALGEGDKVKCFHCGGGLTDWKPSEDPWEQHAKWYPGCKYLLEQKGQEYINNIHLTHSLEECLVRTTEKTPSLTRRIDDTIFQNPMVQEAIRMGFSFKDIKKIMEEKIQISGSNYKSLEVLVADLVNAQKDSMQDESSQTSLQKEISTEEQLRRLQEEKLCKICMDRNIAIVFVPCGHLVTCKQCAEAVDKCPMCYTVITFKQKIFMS
Chain of Procathepsin L (P07711 whole entry): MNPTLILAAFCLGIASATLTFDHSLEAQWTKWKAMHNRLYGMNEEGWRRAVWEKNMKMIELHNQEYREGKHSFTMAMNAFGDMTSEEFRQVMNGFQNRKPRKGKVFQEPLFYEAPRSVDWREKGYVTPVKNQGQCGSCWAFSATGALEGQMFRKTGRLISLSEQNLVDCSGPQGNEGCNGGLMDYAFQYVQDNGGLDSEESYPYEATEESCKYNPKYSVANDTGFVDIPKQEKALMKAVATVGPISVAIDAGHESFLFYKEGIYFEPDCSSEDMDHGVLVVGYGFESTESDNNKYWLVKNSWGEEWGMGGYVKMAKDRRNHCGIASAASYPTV
Chain of NADPH oxidase 1 (Q9Y5S8 whole entry): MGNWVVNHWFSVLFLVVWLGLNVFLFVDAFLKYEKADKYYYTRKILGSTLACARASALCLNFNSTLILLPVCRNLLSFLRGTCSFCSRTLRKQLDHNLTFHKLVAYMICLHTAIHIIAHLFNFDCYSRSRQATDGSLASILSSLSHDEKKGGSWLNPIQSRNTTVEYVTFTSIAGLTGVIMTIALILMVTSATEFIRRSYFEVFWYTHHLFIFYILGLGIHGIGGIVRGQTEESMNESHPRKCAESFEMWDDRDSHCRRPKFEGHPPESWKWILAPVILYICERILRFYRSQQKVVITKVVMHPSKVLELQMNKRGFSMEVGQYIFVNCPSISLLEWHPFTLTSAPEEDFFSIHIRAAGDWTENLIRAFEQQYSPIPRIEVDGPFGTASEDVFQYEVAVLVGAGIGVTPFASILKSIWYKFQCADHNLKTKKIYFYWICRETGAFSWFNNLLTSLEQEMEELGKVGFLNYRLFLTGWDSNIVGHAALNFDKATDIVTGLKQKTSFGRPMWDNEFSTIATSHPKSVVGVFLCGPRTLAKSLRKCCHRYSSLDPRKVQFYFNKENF
Chain of Sphingosine 1-phosphate receptor 2 (O95136 whole entry): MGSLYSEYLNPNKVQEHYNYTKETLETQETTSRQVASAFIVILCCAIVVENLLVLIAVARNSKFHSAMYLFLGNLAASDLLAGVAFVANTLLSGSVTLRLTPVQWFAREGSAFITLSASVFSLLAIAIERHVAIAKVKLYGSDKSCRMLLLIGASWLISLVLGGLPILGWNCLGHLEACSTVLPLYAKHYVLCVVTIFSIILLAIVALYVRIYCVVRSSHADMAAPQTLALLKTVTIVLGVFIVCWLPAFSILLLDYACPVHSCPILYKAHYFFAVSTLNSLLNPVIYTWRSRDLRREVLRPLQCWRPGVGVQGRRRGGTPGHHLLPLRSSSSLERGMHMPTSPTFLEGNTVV
Chain of Paired box protein Pax-8 (Q06710 whole entry): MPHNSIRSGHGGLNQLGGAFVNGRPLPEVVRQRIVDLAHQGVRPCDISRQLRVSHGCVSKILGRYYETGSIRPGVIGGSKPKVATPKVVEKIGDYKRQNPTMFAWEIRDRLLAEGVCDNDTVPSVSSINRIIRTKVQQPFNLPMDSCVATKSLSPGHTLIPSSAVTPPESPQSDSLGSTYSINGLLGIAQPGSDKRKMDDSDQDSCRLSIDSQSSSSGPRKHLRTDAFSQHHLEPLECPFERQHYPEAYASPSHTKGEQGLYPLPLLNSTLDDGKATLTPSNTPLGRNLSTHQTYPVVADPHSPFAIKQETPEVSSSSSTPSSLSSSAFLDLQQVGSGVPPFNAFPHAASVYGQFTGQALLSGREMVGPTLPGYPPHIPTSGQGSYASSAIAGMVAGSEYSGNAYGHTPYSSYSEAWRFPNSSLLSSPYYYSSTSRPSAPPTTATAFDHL

Q: For Cc1cc(C(=O)CSc2nnnn2C)c(C)n1Cc1ccccc1, which EC50 [1] is on record?
A: 30 µM (not active)

Q: For COc1ccccc1OC(=O)c1sc2ccccc2c1Cl, which IC50 (NADPH oxidase 1) is on record?
A: > 17 µM (not active)

Q: With O=C(NC(=S)NC1CC1)c1cccnc1 as the compound, how does the IC50 [2] read?
A: > 100 µM (inactive)

Q: What about the IC50 [3] of the same compound?
A: > 100 µM (not active)

Q: For COc1ccc(-c2cc(=O)[nH][nH]2)cc1OC, which AC50 [4] is on record?
A: 1.01 µM (active)

Q: And the IC50 (Aspartyl aminopeptidase)?
A: > 73.5 µM (not active)

Q: And the IC50 (Procathepsin L)?
A: > 59.6 µM (not active)

Q: What about the IC50 (Leucine aminopeptidase) of the same compound?
A: 7.86 µM (active)

Q: What about the EC50 (Protein RecA) of the same compound?
A: 0.38 µM (active)

Q: With O=C(CCl)/N=c1\sccn1Cc1ccc(Cl)cc1Cl as the compound, how does the AC50 [4] read?
A: 27.2 µM (active)

Q: What about the AC50 [5] of the same compound?
A: 2.54 µM (active)

Q: And the EC50 (cells)?
A: < 4 nM (active)

Q: What about the IC50 (Jurkat) of the same compound?
A: < 160 nM (active)

Q: What about the EC50 [6] of the same compound?
A: 361 nM (active)

Q: And the EC50 [7]?
A: 192 nM (active)

Q: And the IC50 [8]?
A: > 80 µM (inactive)

Q: What about the EC50 [9] of the same compound?
A: < 100 nM (active)

Q: And the IC50 [10]?
A: 235 nM (active)

Q: And the AC50 (Paired box protein Pax-8)?
A: 1.36 µM (active)

Q: What about the EC50 (Protein RecA) of the same compound?
A: 15.1 µM (active)

Q: For CC1(C)CC(=O)/C(=N/Nc2ccc(Cl)cc2)CO1, which EC50 (H4) is on record?
A: < 100 nM (active)

Q: And the EC50 [11]?
A: 422 nM (active)

Q: What about the EC50 [12] of the same compound?
A: 324 nM (active)

Q: And the EC50 [13]?
A: 207 nM (active)

Q: What about the EC50 [14] of the same compound?
A: 504 nM (active)
